Results filed as inconclusive are left out. Active and inactive are the calls of the source.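 Rule for the calls: active = falling signal with fitted half-maximal potency no higher than twice the top valid tested dose; inconclusive = poor fit quality, or flat fit spanning -70% to -30%; inactive = potency over limit, rising signal, or flat fit inside 30%.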

The test system of this experiment is Cryptococcus neoformans growth, Alamar Blue, 24 h. Kind of experiment: fungal growth arrest, C. neoformans – Alamar Blue, cherry-picks, dose response (AID 686998).
As to `Cc1ccccc1-n1ncc2c(SCC(=O)NCc3cccs3)ncnc21`, the IC50 is 23.4 µM.

Turning to `CC(=O)N[C@H]1CC[C@@H](CCNC(=O)C2CCC2)O[C@H]1CO`, the IC50 is 50.2 µM.

Regarding `COc1cc2c(C(=O)N(C)c3cc(Cl)ccc3OC)cn(C)c(=O)c2cc1OC`, the concentration for half-maximal inhibition (IC50) was 0.383 µM.

Take `C/C=C/c1ccc([C@@H]2[C@H]3CN(C(=O)Nc4ccc(OC)cc4)CCCCN3[C@H]2CO)cc1`: the IC50 was > 70 µM (inactive).

Consider `C[C@@H]1CN([C@H](C)CO)C(=O)c2cccc(NC(=O)c3ccncc3)c2O[C@H]1CN(C)C(=O)Nc1ccc(C(F)(F)F)cc1`, for which the IC50 is 67.4 µM.

As for `O=C(NC(=S)Nc1ccc(Br)cc1)C1CCC1`, the half-inhibitory concentration (IC50) is 15.8 µM.

As for `C[C@H]1CN([C@@H](C)CO)C(=O)CCCn2cc(nn2)CO[C@@H]1CN(C)Cc1ccc(C(F)(F)F)cc1`, the half-maximal inhibitory concentration (IC50) was 30.7 µM.

With `Cc1cc(C(=O)Nc2cccc3c2O[C@@H](CN(C)S(=O)(=O)c2ccccc2)[C@@H](C)CN([C@@H](C)CO)C3=O)n(C)n1`, the IC50 is 61.2 µM.

Turning to `CCCn1c(=S)[nH]c2cc(Cl)ccc21`, the concentration for half-maximal inhibition (IC50) is 22.9 µM.

`O=C(CN(c1ccccc1)S(=O)(=O)c1ccccc1)Nc1ccc(F)cc1`: the IC50 is 40.8 µM.

In the case of `CCc1ccc(C(C)NC(=S)NCc2ccc(F)cc2)cc1` (stereo not drawn), the 50% inhibitory concentration (IC50) was 7.31 µM.

`CC(=O)OC1(C)CC(C)C(=O)C(C(O)CC2CC(=O)NC(=O)C2)C1` (stereo not drawn): the IC50 is less than 0.26 µM.

Consider `CCOC(=O)c1c(-c2ccc(-c3ccccc3)cc2)csc1NC(=O)CNCCN(C)C`, for which the IC50 is 15 µM.

Turning to `O=C(C[C@H]1CC[C@@H]2[C@H](COC[C@H](O)CN2CC2CCOCC2)O1)NCc1ccc(Cl)cc1`, the concentration for half-maximal inhibition (IC50) is 70 µM.

With `CCC(=O)N(C)C[C@@H]1Oc2cc(C#CC(C)(C)O)ccc2S(=O)(=O)N([C@@H](C)CO)C[C@H]1C`, the IC50 is 28.7 µM.

`COc1ccc(N2CCN(C(=O)CSc3ncnc4c3cnn4-c3ccccc3C)CC2)cc1`: the 50% inhibitory concentration (IC50) was 53.8 µM.

Consider `CC(C)CC#Cc1cnc2c(c1)C(=O)N([C@@H](C)CO)C[C@H](C)[C@H](CN(C)C(=O)c1ccc3c(c1)OCO3)O2`, for which the IC50 is 5.12 µM.

`C[C@@H]1CN([C@H](C)CO)C(=O)c2cc(NS(=O)(=O)c3cn(C)cn3)ccc2O[C@@H](C)CCCCO[C@H]1CN(C)C`: the IC50 was 62.9 µM.

As for `CC[C@H](C)[C@@H]1NC(=O)CNC(=O)c2csc(n2)[C@H](C(C)(C)O)OC(=O)C(C)(C)[C@H](CCCC(C)(Cl)Cl)OC(=O)c2csc1n2`, the 50% inhibitory concentration (IC50) is 2.16 µM.

As for `COC(=O)C1=C(C)N(CC(C)C)C(=S)NC1c1ccc(F)cc1` (stereo not drawn), the IC50 is 20.3 µM.

Turning to `COc1cccc(NC(=S)N2CCC(Cc3ccccc3)CC2)c1`, the IC50 is 8.22 µM.

Regarding `CCNC(=O)C[C@H]1CC[C@@H](NC(=O)NC2CCCCC2)[C@H](CO)O1`, the 50% inhibitory concentration (IC50) is 53.1 µM.

Take `COc1ccc(CN(C)C[C@@H]2Oc3ccc(NS(C)(=O)=O)cc3CC(=O)N([C@H](C)CO)C[C@H]2C)cc1`: the IC50 was 48.6 µM.

For the compound `Cc1ccc(OCCn2c(=S)[nH]c3ccccc32)c(C(C)C)c1`, the half-inhibitory concentration (IC50) was 0.913 µM.

Regarding `COc1ccc(NC(=O)CN2CCN(S(=O)(=O)c3ccc(C(C)C)cc3)CC2)cc1OC`, the IC50 was 43.7 µM.

Take `O=C(CSc1ncnc2c1cnn2-c1cccc(Cl)c1)NCC1CCCO1` (stereo not drawn): the IC50 is 39.1 µM.

As to `O=C(C1CCOCC1)N1C[C@H]2[C@@H](c3ccccc31)[C@@H](CO)N2Cc1ccccc1Cl`, the half-inhibitory concentration (IC50) was 1.88 µM.

For the compound `C[C@@H]1CN([C@H](C)CO)C(=O)Cc2cc(NC(=O)NC3CCCCC3)ccc2O[C@@H]1CN(C)Cc1ccccc1`, the IC50 was > 70 µM (inactive).

With `C[C@H](CO)N1C[C@H](C)[C@H](CN(C)Cc2ccccc2F)Oc2cc(C3=CCCC3)ccc2S1(=O)=O`, the concentration for half-maximal inhibition (IC50) is 36.3 µM.

Turning to `COc1cccc(NC(=S)NC(=O)Cc2ccc(Cl)cc2)c1`, the IC50 is 5.24 µM.

Take `Cc1c(Cl)cccc1NC(=S)NCCc1ccc(Cl)cc1`: the IC50 was 5.38 µM.

For the compound `COC(=O)C1=C(C)N(Cc2ccc(F)cc2)C(=S)NC1c1ccc(F)cc1` (stereo not drawn), the half-maximal inhibitory concentration (IC50) was 22.7 µM.

`Cc1cc(C)c(NC(=O)CN(C2CCCCC2)C2CCCCC2)c(C)c1`: the IC50 is 32.9 µM.
